Where two headings read alike, the source gives them in different places.
Tests used:
[1] = target: human 5-HT6 receptor (Homo sapiens, UniProt P50406); assay: R-SAT assay 5-HT6; format: cell-based; settings: Table 3, 5-HT6
[2] = target: T1, human D1 receptor (Homo sapiens, UniProt P21728); assay: R-SAT assay D1; format: cell-based; settings: Table 3, D1; percent response of reference SKF 38393
T1 construct: expressed in transfected cells; host or cells: NIH-3T3 (inferred: R-SAT host; D1 is in neither method list of b200)
T1 sequence (P21728 whole entry): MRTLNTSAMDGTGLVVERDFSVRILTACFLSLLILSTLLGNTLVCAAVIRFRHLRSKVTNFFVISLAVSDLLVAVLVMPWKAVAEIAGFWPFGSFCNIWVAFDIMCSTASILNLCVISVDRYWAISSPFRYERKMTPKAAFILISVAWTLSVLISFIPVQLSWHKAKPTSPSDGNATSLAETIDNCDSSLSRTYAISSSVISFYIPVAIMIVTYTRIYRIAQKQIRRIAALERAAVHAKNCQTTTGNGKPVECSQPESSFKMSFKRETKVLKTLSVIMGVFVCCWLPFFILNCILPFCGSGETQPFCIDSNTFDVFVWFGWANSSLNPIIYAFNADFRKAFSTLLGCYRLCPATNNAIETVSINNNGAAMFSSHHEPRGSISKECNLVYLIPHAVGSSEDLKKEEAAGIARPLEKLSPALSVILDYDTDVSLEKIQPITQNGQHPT

[3] = target: T2, human D3 receptor (Homo sapiens, UniProt P35462); assay: R-SAT assay D3; format: cell-based; settings: Table 3, D3
T2 construct: expressed in transfected cells
T2 sequence (P35462 whole entry): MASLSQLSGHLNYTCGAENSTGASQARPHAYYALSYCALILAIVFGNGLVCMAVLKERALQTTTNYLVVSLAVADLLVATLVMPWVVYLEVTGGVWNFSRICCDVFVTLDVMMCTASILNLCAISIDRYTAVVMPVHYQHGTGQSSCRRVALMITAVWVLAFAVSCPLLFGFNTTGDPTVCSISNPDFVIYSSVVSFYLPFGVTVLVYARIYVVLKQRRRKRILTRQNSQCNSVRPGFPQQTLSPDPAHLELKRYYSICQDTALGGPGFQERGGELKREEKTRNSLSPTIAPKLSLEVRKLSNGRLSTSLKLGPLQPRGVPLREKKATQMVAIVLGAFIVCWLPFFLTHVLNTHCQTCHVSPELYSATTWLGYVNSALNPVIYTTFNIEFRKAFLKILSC

[4] = target: T3, human H1 receptor (Homo sapiens, UniProt P35367); assay: R-SAT assay H1; format: cell-based; settings: Table 3, H1; percent response of reference Histamine
T3 construct: expressed in transfected cells; host or cells: NIH/3T3
T3 sequence (P35367 whole entry): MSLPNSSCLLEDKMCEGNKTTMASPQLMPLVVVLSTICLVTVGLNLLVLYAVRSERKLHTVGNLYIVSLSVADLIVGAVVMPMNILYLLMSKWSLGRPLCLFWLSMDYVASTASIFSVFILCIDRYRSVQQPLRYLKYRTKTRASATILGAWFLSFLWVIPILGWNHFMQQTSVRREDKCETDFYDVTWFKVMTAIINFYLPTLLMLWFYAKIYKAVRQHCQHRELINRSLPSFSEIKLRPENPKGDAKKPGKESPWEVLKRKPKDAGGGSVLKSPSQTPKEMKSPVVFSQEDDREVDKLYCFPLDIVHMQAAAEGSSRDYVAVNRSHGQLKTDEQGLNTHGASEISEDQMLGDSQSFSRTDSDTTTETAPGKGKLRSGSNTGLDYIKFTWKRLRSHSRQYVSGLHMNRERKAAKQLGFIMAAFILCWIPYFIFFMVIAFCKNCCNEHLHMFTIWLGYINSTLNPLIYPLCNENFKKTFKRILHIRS

[5] = target: T4, human M4 receptor (Homo sapiens, UniProt P08173); assay: R-SAT assay M4; format: cell-based; settings: Table 3, M4; percent response of reference Carbachol
T4 construct: expressed in transfected cells; host or cells: NIH/3T3
T4 sequence (P08173 1-479): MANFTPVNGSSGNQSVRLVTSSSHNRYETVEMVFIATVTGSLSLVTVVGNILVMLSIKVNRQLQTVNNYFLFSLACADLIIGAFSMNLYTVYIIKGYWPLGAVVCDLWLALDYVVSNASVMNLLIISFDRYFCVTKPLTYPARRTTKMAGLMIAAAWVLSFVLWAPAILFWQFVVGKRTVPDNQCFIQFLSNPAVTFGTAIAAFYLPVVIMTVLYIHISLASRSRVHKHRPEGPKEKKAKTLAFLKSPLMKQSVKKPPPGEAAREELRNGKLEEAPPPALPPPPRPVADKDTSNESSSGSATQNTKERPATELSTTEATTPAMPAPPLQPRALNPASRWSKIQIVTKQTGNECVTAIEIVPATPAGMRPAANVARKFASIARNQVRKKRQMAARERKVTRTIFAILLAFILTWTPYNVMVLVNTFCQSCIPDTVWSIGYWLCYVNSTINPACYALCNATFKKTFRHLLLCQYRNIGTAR

[6] = test system: drug naive mice; assay: Head twitch induction in mice; format: in vivo; settings: DOI 1 mg/kg ip, OSU6162 enantiomers 9.375-300 μmol/kg ip, 10 min before registration
Description: (§1) The animals used in the head twitch experiments were individually placed in Macrolon type II cages and allowed to habituate to these test cages during 30 minutes before the video registration of behavior began. […] The animals were videotaped for 10 minutes; the behavior was scored during the first 5 minutes. The number of head twitches was counted from the videotapes by a person blind to the treatment.
In FIG. 5, the number of head twitches produced during 5 minutes is shown. The mice were habituated to the test cages during 30 minutes before the video registration of behavior began. […] Shown are means and SEM, n=6-12.

[7] = test system: DOI-induced head twitches in mice; assay: Antagonism of DOI-induced head twitch response in mice; format: in vivo; settings: DOI 1 mg/kg ip, 75 or 150 μmol/kg ip
Description: as §1
The purpose of the second experiment was to investigate whether the OSU6162 enantiomers would be able to counteract DOI-induced head twitches. […] The mice were habituated to the test cages during 30 minutes before the video registration of behavior began. All compounds were administered 10 min before the registration of behavior started. DOI was given in dose of 1 mg/kg (ip) throughout. […] In b) the interaction between (+)-OSU6162 (75 or 150 μmol/kg ip) and DOI is shown. In c) the interaction between (−)- or (+)-OSU6162 (75 μmol/kg ip) and DOI is shown.

[8] = test system: active rats; assay: Motor activity in active rats, video tracking; format: in vivo; settings: 30, 60, 120 μmol/kg sc 30 minutes prior to recording
Description: Motor activity experiments in both active and habituated rats were performed on male Sprague-Dawley rats (Charles River, Germany) weighing 280-320 g. Prior to testing, rats were housed in groups of four or five in ventilated Macrolon type IV cages for approximately one week.
The rats were housed in reverse daylight cycle and all handling of the animals was performed in dim light. Test drugs were administered s.c. 30 minutes prior to registration of behavior. Single rats were introduced into rectangular arenas (l/w/h: 150×100×40 cm) illuminated indirectly by one infrared (IR) lamp (Neocom, South Korea). The rats' movements were recorded to digital (MPEG2) video files using an IR sensitive video camera (Panasonic WV-CPR480, lens: Panasonic LA-408C3) connected to a PC equipped with a MPEG-encoder (MVR1000SX, Canopus Co.).
Suspected outliers were evaluated one at the time with Grubbs' test for outliers (Grubbs F E (1969) Procedures for detecting outlying observations in samples. Technometrics 11(1):1-21).
The third series of experiments was performed in drug naive rats (FIG. 8). Rats were injected sc with saline (C, 0.9%) or either test drug 30 minutes prior to video recording. […] Behavior was registered under infrared light in rectangular arenas (150×100×40 cm) by video tracking. Motor activity is shown as velocity. Shown are means and SEM.

[9] = target: T5, D2 receptors (Homo sapiens, UniProt P14416); assay: Dissociation rate of dopamine from D2 receptors (off-rate assay); format: binding; settings: data not shown
T5 sequence (P14416 1-414 isoform P14416-2): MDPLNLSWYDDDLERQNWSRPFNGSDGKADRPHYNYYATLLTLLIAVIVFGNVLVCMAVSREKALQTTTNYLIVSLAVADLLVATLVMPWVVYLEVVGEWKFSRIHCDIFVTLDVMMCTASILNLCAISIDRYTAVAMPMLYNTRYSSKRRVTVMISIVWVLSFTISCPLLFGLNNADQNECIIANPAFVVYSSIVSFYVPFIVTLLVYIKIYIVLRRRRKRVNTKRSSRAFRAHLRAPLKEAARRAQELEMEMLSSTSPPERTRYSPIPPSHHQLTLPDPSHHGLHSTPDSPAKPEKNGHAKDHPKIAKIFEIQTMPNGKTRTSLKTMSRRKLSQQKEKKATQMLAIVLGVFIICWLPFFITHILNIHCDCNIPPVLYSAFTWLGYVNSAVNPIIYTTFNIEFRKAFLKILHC

[10] = clinical observation; cited from earlier work
[11] = target: human norepinephrine transporter (NET) (Homo sapiens, UniProt P23975); assay: Equilibrium radioligand binding to NET; settings: displacement of 3H-Imipramine
Sequence of human norepinephrine transporter (NET) (P23975 whole entry): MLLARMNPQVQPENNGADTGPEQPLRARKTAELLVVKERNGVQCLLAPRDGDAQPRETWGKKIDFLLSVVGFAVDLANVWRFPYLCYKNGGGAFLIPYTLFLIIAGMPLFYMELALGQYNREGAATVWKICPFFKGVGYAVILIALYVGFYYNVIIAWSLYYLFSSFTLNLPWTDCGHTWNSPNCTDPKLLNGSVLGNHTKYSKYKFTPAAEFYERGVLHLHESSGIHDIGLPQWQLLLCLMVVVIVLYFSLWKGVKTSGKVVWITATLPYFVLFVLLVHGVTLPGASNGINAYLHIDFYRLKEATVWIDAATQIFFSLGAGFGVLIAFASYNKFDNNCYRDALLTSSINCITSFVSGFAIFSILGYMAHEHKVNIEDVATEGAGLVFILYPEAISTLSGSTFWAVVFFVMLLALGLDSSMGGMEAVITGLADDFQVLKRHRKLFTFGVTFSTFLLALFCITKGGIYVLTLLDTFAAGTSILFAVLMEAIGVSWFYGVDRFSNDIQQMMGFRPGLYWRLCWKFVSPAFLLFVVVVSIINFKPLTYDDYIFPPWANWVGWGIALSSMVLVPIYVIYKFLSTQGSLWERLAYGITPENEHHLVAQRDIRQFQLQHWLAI
Description: Cells were not centrifuged following cell scraping, but were collected directly into the ice-cold nitrogen cavitation chamber.
Membranes were prepared as described above. […] Binding reactions were terminated by filtration through UniFilter-96GF/B filters (from Perkin-Elmer, presoaked with 0.1% polyethylenimine for 1 h) with a Brandel 96-well harvester. Filters were washed with ice-cold wash buffer (50 mM Tris, 120 mM NaCl, pH7.4; 500 ml/plate) and then allowed to air-dry for 30 min. 50 μl MacrosScint-20 scintillation cocktail was added to each well, the plates were sealed, and then counted on a Top-Count (Packard).

[12] = target: T5, D2 receptors; assay: R-SAT functional assay at D2; format: cell-based; set-up: expressed in transfected cells; host or cells: NIH-3T3; settings: for R-SAT Eff(%): percent response of reference ligand pergolide
[13] = target: 5-HT2B receptors (Homo sapiens, UniProt P41595); assay: R-SAT assay 5-HT2B; format: cell-based; set-up: expressed in transfected cells; host or cells: NIH/3T3; settings: Table 3, 5-HT2B; for EC50: negative logarithm of EC50 in molar, read-out: pEC50 (converted); for Eff (%): percent response of reference 5-CT
Sequence of 5-HT2B receptors (P41595 whole entry): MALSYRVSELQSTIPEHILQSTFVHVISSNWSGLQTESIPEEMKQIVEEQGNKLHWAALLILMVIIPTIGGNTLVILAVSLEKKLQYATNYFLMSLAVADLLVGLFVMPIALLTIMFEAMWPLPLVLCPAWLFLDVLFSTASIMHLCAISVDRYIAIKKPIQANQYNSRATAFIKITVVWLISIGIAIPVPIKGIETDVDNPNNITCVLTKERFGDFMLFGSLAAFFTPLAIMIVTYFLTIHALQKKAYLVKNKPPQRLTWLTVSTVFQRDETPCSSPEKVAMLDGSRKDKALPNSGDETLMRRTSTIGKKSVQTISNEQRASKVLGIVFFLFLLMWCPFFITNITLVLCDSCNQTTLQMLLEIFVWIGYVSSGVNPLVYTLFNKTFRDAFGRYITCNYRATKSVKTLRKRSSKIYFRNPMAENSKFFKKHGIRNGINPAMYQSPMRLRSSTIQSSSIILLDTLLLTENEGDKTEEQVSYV

[14] = test system: synthesis of dopamine in the striatum of the brain; settings: Sonesson's thesis 1995; cited from earlier work

Sequence of human 5-HT6 receptor (P50406 whole entry): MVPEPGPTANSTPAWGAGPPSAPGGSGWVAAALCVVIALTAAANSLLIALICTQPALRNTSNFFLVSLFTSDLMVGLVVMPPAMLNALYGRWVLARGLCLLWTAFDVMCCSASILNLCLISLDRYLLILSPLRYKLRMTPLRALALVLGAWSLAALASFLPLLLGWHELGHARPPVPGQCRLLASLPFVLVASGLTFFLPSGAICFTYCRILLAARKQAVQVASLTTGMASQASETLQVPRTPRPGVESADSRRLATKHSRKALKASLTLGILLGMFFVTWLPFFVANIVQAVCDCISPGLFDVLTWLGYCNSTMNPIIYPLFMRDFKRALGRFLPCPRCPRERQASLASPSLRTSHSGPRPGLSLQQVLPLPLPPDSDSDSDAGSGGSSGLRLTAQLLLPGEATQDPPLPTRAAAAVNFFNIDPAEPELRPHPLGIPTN

SMILES | Eff (%) [4] | Eff (%) [5] | head twitches produced during 5 minutes [6] | antagonism of DOI-induced head twitches [7] | motor activity (velocity) in active rats [8] | Inh % [11] | EC50 [13] | Eff (%) [13] | further results
CCCN1CCC[C@@H](c2cccc(S(C)(=O)=O)c2)C1 [(−)-OSU6162, (3S)-3-[3-(methylsulfonyl)phenyl]-1-propylpiperidine] | 2% | 2% | produced head twitches but to a lesser degree than DOI | significantly antagonized DOI-induced head twitches | decreased motor activity in active rats | 11% | 631 nM | 75% | EC50 ([1]; negative logarithm of EC50 in molar, read-out: pEC50 (converted)): > 10000 nM; Eff (%) ([1]; percent response of reference 5-CT): 52%; Eff (%) [2]: 11%; EC50 ([3]; negative logarithm of EC50 in molar): 3980 nM; Eff (%) ([3]; percent response of reference Pergolide): 54%; effect on dissociation rate of dopamine from D2 receptors [9]: did not significantly alter; hallucinogenic activity [10]: no hallucinogenic activity; R-SAT pEC50 ([12]; Table 2, negative logarithm of EC50 in molar, NIH3T3 cells, mean ± SEM): 6.1 ± 0.3; EC50 ([12]; Table 2, negative logarithm of EC50 in molar, NIH3T3 cells, mean ± SEM, read-out: R-SAT pEC50 (converted)): 794 nM; R-SAT Eff(%) ([12]; Table 2, mean ± SEM): 30%; R-SAT Eff(%) ([12]; Table 2, mean ± SEM, listed as (−)-OSU-6162): 36 ± 3%; EC50 ([12]; Table 3, D2, negative logarithm of EC50 in molar, read-out: pEC50 (converted)): 794 nM; Eff (%) ([12]; Table 3, D2, percent response of reference Pergolide): 36%
CCCN1CCC[C@H](c2cccc(S(C)(=O)=O)c2)C1 [(+)-OSU6162, (3R)-3-[3-(methylsulfonyl)phenyl]-1-propylpiperidine] | 3% | 4% | produced head twitches but to a lesser degree than DOI | neither 75 nor 150 μmol/kg of (+)-OSU6162 significantly antagonized DOI-induced head twitches | decreased motor activity in active rats | 14% | 5010 nM | 111% | synthesis of dopamine in the striatum of the brain [14]: weak increase in the synthesis of dopamine in the striatum of the brain; Emax at 50 µM ([12]; read-out: Eff (%), response at 50 μM): 77%; Emax at 50 µM ([12]; read-out: R-SAT Eff(%), response at 50 μM): 77%

Reference: patent US20130197032A1, “[…] COMPOUNDS FOR THE TREATMENT OF NEUROLOGICAL AND […] DISORDERS” (A. CARLSSON RESEARCH AB, priority 2010, published 2013)
